Data as given in PubChem BioAssay (NCI).
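Where inhibition never reached the appropriate level, the endpoint shown equals the highest concentration tested. Otherwise, values were interpolated linearly from a five-concentration, 48-hour dose response in 96-well plates. The concentration for full growth arrest is given as TGI.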

Assays:
Experiment in all cases: NCI anticancer screen, dose series, 48 h
MDA-MB-435 = tested on: MDA-MB-435
OVCAR-5 ovarian = tested on: OVCAR-5 ovarian
A549 NSCLC = tested on: A549 NSCLC
M14 melanoma = tested on: M14 melanoma
SR leukemia = tested on: SR leukemia
HOP-92 NSCLC = tested on: HOP-92 NSCLC
SW-620 colon = tested on: SW-620 colon
NCI-H522 lung = tested on: NCI-H522 lung
MCF7 breast = tested on: MCF7 breast
MDA-N = tested on: MDA-N
SF-268 CNS = tested on: SF-268 CNS
HCC-2998 colon = tested on: HCC-2998 colon
HCT-116 colon = tested on: HCT-116 colon
SK-MEL-2 melanoma = tested on: SK-MEL-2 melanoma
SK-MEL-28 melanoma = tested on: SK-MEL-28 melanoma
KM12 colon = tested on: KM12 colon
MDA-MB-231 breast = tested on: MDA-MB-231 breast
NCI-H460 lung = tested on: NCI-H460 lung
NCI-H23 lung = tested on: NCI-H23 lung
NCI/ADR-RES ovarian = tested on: NCI/ADR-RES ovarian
COLO 205 colon = tested on: COLO 205 colon
U251 CNS = tested on: U251 CNS
SF-295 CNS = tested on: SF-295 CNS
HCT-15 colon = tested on: HCT-15 colon
PC-3 prostate = tested on: PC-3 prostate
CCRF-CEM leukemia = tested on: CCRF-CEM leukemia
TK-10 renal = tested on: TK-10 renal
HL-60(TB) leukemia = tested on: HL-60(TB) leukemia
ACHN renal = tested on: ACHN renal
DU-145 prostate = tested on: DU-145 prostate
UACC-62 melanoma = tested on: UACC-62 melanoma
UACC-257 melanoma = tested on: UACC-257 melanoma
SN12C renal = tested on: SN12C renal
SF-539 CNS = tested on: SF-539 CNS
T-47D breast = tested on: T-47D breast
K-562 leukemia = tested on: K-562 leukemia
SK-MEL-5 melanoma = tested on: SK-MEL-5 melanoma
OVCAR-8 ovarian = tested on: OVCAR-8 ovarian
EKVX NSCLC = tested on: EKVX NSCLC
OVCAR-4 ovarian = tested on: OVCAR-4 ovarian
RXF 393 renal = tested on: RXF 393 renal
RPMI-8226 leukemia = tested on: RPMI-8226 leukemia
HS 578T breast = tested on: HS 578T breast
LOX IMVI melanoma = tested on: LOX IMVI melanoma
MOLT-4 leukemia = tested on: MOLT-4 leukemia
SK-OV-3 ovarian = tested on: SK-OV-3 ovarian
SNB-75 CNS = tested on: SNB-75 CNS
CAKI-1 renal = tested on: CAKI-1 renal
IGROV1 ovarian = tested on: IGROV1 ovarian
SNB-19 CNS = tested on: SNB-19 CNS
HT29 colon = tested on: HT29 colon
OVCAR-3 ovarian = tested on: OVCAR-3 ovarian
UO-31 renal = tested on: UO-31 renal
786-0 renal = tested on: 786-0 renal
A498 renal = tested on: A498 renal
NCI-H226 lung = tested on: NCI-H226 lung
HOP-62 NSCLC = tested on: HOP-62 NSCLC
MALME-3M melanoma = tested on: MALME-3M melanoma

Measured: TGI

CCOC(=O)C(NC(=O)CC)(Nc1ccccc1OC)C(F)(F)F (stereo unspecified)
> 100 µM: MDA-MB-435 | OVCAR-5 ovarian | A549 NSCLC | M14 melanoma | SR leukemia | HOP-92 NSCLC | SW-620 colon | NCI-H522 lung | MCF7 breast | MDA-N | SF-268 CNS | HCC-2998 colon | HCT-116 colon | SK-MEL-2 melanoma | SK-MEL-28 melanoma | KM12 colon | MDA-MB-231 breast | NCI-H460 lung | NCI-H23 lung | NCI/ADR-RES ovarian | COLO 205 colon | U251 CNS | SF-295 CNS | HCT-15 colon | PC-3 prostate | CCRF-CEM leukemia | TK-10 renal | HL-60(TB) leukemia | ACHN renal | DU-145 prostate | UACC-62 melanoma | UACC-257 melanoma | SN12C renal | SF-539 CNS | T-47D breast | K-562 leukemia | SK-MEL-5 melanoma | OVCAR-8 ovarian | EKVX NSCLC | OVCAR-4 ovarian | RXF 393 renal | RPMI-8226 leukemia | HS 578T breast | LOX IMVI melanoma | MOLT-4 leukemia | SK-OV-3 ovarian | SNB-75 CNS | CAKI-1 renal | IGROV1 ovarian | SNB-19 CNS | HT29 colon | OVCAR-3 ovarian | UO-31 renal

Cc1cc(C)n(C(=O)CSc2nc3ccc(I)cc3c(=O)n2Cc2ccccc2)n1
78.8 µM: IGROV1 ovarian
22.2 µM: CAKI-1 renal
63.7 µM: PC-3 prostate
63.4 µM: A498 renal | SNB-75 CNS
44.6 µM: HS 578T breast
> 100 µM: MDA-MB-435 | OVCAR-5 ovarian | A549 NSCLC | M14 melanoma | 786-0 renal | SR leukemia | SW-620 colon | MCF7 breast | MDA-N | HCC-2998 colon | HCT-116 colon | SK-MEL-2 melanoma | SK-MEL-28 melanoma | KM12 colon | NCI-H460 lung | NCI-H23 lung | NCI/ADR-RES ovarian | COLO 205 colon | U251 CNS | SF-295 CNS | HCT-15 colon | CCRF-CEM leukemia | TK-10 renal | HL-60(TB) leukemia | ACHN renal | DU-145 prostate | UACC-62 melanoma | UACC-257 melanoma | SN12C renal | SF-539 CNS | T-47D breast | NCI-H226 lung | K-562 leukemia | SK-MEL-5 melanoma | EKVX NSCLC | OVCAR-4 ovarian | RPMI-8226 leukemia | LOX IMVI melanoma | MOLT-4 leukemia | SK-OV-3 ovarian | SNB-19 CNS | HT29 colon | OVCAR-3 ovarian
70.3 µM: OVCAR-8 ovarian | HOP-62 NSCLC
71 µM: SF-268 CNS
53 µM: HOP-92 NSCLC
62.1 µM: NCI-H522 lung
62.4 µM: RXF 393 renal
66.3 µM: MDA-MB-231 breast

c1ccc2c(c1)CCN2CCN1CCc2ccccc21
> 10 µM: MDA-MB-435 | OVCAR-5 ovarian | A549 NSCLC | M14 melanoma | 786-0 renal | SR leukemia | HOP-92 NSCLC | SW-620 colon | NCI-H522 lung | MCF7 breast | MDA-N | SF-268 CNS | HCC-2998 colon | HCT-116 colon | SK-MEL-2 melanoma | SK-MEL-28 melanoma | KM12 colon | MDA-MB-231 breast | NCI-H460 lung | NCI-H23 lung | NCI/ADR-RES ovarian | COLO 205 colon | U251 CNS | SF-295 CNS | HCT-15 colon | PC-3 prostate | CCRF-CEM leukemia | TK-10 renal | HL-60(TB) leukemia | ACHN renal | DU-145 prostate | UACC-62 melanoma | UACC-257 melanoma | SN12C renal | SF-539 CNS | T-47D breast | NCI-H226 lung | K-562 leukemia | SK-MEL-5 melanoma | OVCAR-8 ovarian | EKVX NSCLC | OVCAR-4 ovarian | RXF 393 renal | RPMI-8226 leukemia | HS 578T breast | LOX IMVI melanoma | MOLT-4 leukemia | SK-OV-3 ovarian | SNB-75 CNS | CAKI-1 renal | IGROV1 ovarian | SNB-19 CNS | HT29 colon | OVCAR-3 ovarian | UO-31 renal | HOP-62 NSCLC

CC1(C)NC(C)(C)/C(=N\O)C(=NO)/C1=N/O
> 100 µM: MDA-MB-435 | OVCAR-5 ovarian | A549 NSCLC | M14 melanoma | 786-0 renal | SR leukemia | HOP-92 NSCLC | SW-620 colon | MCF7 breast | MDA-N | SF-268 CNS | HCC-2998 colon | HCT-116 colon | SK-MEL-2 melanoma | SK-MEL-28 melanoma | KM12 colon | MDA-MB-231 breast | NCI-H460 lung | NCI-H23 lung | NCI/ADR-RES ovarian | COLO 205 colon | U251 CNS | SF-295 CNS | HCT-15 colon | PC-3 prostate | CCRF-CEM leukemia | TK-10 renal | HL-60(TB) leukemia | ACHN renal | DU-145 prostate | UACC-62 melanoma | UACC-257 melanoma | SN12C renal | SF-539 CNS | T-47D breast | NCI-H226 lung | K-562 leukemia | SK-MEL-5 melanoma | OVCAR-8 ovarian | EKVX NSCLC | OVCAR-4 ovarian | RXF 393 renal | RPMI-8226 leukemia | HS 578T breast | LOX IMVI melanoma | MOLT-4 leukemia | MALME-3M melanoma | SK-OV-3 ovarian | SNB-75 CNS | CAKI-1 renal | IGROV1 ovarian | SNB-19 CNS | HT29 colon | OVCAR-3 ovarian | UO-31 renal | HOP-62 NSCLC

Cc1cc2c3ccccc3nc2c2cc[nH]c(C)c12
48.9 µM: SNB-19 CNS
3.3 µM: MDA-N | SK-MEL-28 melanoma
4.23 µM: HL-60(TB) leukemia
49.9 µM: HOP-92 NSCLC
3.42 µM: M14 melanoma
20.2 µM: SK-MEL-5 melanoma
5.62 µM: U251 CNS
18.5 µM: SN12C renal
45.1 µM: UO-31 renal
3.59 µM: K-562 leukemia
> 74.8 µM: SR leukemia
50.8 µM: A549 NSCLC
4.77 µM: CCRF-CEM leukemia
7.59 µM: HCT-15 colon
27.9 µM: UACC-62 melanoma
11.4 µM: SF-539 CNS
46.9 µM: UACC-257 melanoma
31.2 µM: SF-268 CNS
49.6 µM: SK-OV-3 ovarian
6.87 µM: SW-620 colon
36.5 µM: OVCAR-5 ovarian | SNB-75 CNS
29.8 µM: DU-145 prostate
> 64.7 µM: HOP-62 NSCLC
> 80.6 µM: HT29 colon
51 µM: CAKI-1 renal
4.89 µM: LOX IMVI melanoma
31.6 µM: OVCAR-8 ovarian
38.9 µM: T-47D breast
28.2 µM: NCI-H226 lung
> 70.7 µM: EKVX NSCLC
> 100 µM: MCF7 breast | NCI/ADR-RES ovarian | OVCAR-4 ovarian
52.4 µM: ACHN renal
17.1 µM: MDA-MB-231 breast
23.3 µM: SK-MEL-2 melanoma
37.6 µM: TK-10 renal
> 35.4 µM: OVCAR-3 ovarian
> 85.5 µM: PC-3 prostate
> 88.5 µM: SF-295 CNS
3.57 µM: HCT-116 colon
4.31 µM: COLO 205 colon
3.06 µM: 786-0 renal
6.67 µM: HCC-2998 colon
20 µM: RPMI-8226 leukemia
22.1 µM: MOLT-4 leukemia
> 55.9 µM: IGROV1 ovarian
> 31.6 µM: KM12 colon | NCI-H23 lung
28.8 µM: MALME-3M melanoma
> 65.5 µM: HS 578T breast
3.45 µM: MDA-MB-435
4.49 µM: NCI-H522 lung
